In US20130252886A1, “METHODS OF DELAYING AND TREATING DIABETES” (priority 2010, published 2013):
“Also recorded” adds a separate entry of the source.

Tests used:
[1] = tested on: insulin-dependent dogs; experiment: Clinical trial of oral GABA in naturally-occurring insulin-dependent dogs: blood glucose, fructosamine; format: in vivo
Procedure: These companion dogs were housed in homes, mimicking the lifestyle of diabetic humans. Based on published estimates, approximately 50% of these animals had insulitis, while others have had pancreatitis.
The GABA was diluted in water and the owner administers it orally (PO QD) as a bolus just before feeding. […] Once randomized on day 120, all investigators were blinded as to treatment.
As previously described in Example 5, supra, the 8 month clinical canine trial in collaboration with Purdue University was completed. Naturally-occurring diabetic dogs were housed in homes and were insulin dependent when they began the study. FIGS. 18 and 19 show the mean 10 hour fasting blood glucose (mg/dl) and mean C-peptide (ng/ml/kg) in these insulin-dependent dogs, respectively.
FIG. 18 is a graph of the mean blood glucose in the seven dogs measured during a ten hour window. On a measurement day, the dogs were fed and given insulin. Blood glucose was then monitored at ˜8:00 AM and for every two hours until ˜6:00 PM. The mean of these values was taken and plotted in FIG. 18.
On day 0, the mean 10 hr glucose was 310 mg/dl. From day 0 to day 60, the dogs were treated with insulin only. […] The mean blood glucose over the 10 hour measurement period dropped to 209 mg/dl by the last visit, a 33% overall improvement without a significant change in the average insulin dosage.

[2] = tested on: insulin-dependent dogs; experiment: Stimulated C-peptide in insulin-dependent dogs (radioimmunoassay); format: in vivo; conditions: oral GABA 30, 60, 90 mg/kg, seven dogs
Text: C-peptide was monitored as a way to determine the amount of endogenous insulin synthesized and secreted in these diabetic dogs. Endogenous insulin is first biosynthesized as linked A, B and C peptides. The C-peptide is removed and circulates in the blood stream. The active insulin molecule is linked A & B peptide only. Since diabetic patients administering insulin injections receive exogenous A & B peptide, the measurement of C-peptide can determine of how much endogenous insulin is produced by the individual's pancreas.
In this study stimulated C-peptide was measured every two months. On the day of C-peptide measurements, blood was drawn at time 0 and the dog was fed stimulating C-peptide release. No exogenous insulin was given by injection to avoid suppressing endogenous insulin secretion. Blood was drawn again at 60, 90, 120 and 240 minutes. […] C-peptide was plotted as area under the curve measurements. The values for the placebo treatment have been grouped and represent all seven dogs.

NCCCC(=O)O [GABA, γ-aminobutyric acid]
average reduction in blood glucose levels from day 60 to day 120 ([1]; 30 mg/kg GABA PO QD): 32%
reduction in average blood glucose levels at day 120 compared to the pre-treatment average (day −10 through day 60) ([1]; 30 mg/kg GABA PO QD): 40%
overall improvement of mean 10 hour blood glucose ([1]; day 0 to last visit, without significant change in average insulin dosage): 33%
mean blood glucose over the 10 hour measurement period ([1]; seven dogs, last visit, GABA escalated 30, 60, 90 mg/kg, day 0 value 310 mg/dl): 209 mg/dL
fasting blood glucose control ([1]; six dogs, 30 mg/kg GABA PO QD from day 60, with insulin, 30 mg/kg): downward decrease in fasting blood glucose; also recorded: substantially improved
mean fructosamine level ([1]; six dogs, treatment days 60-120 with 30 mg/kg GABA vs pretreatment days 0-59 (p=0.007)): decline of the mean fructosamine level
C-peptide (area under the curve) [2]: dose dependent increase
